Measured values taken from patent US11351124B2, “Sustained release of formulations of local anesthetics” (EUPRAXIA PHARMACEUTICALS INC., priority 2015, dated 2022).
Converted amounts (≈) assume the structure as drawn. “And” between values parts separate entries of the source, which are not always exact repeats. Identical values can stand only once.

Legend:
[1] = Dissolution of ropivacaine crystals in suspension, USP I apparatus; type: physicochemical
Experimental: Prior to assessing intrinsic dissolution of ropivacaine, the kinetics of dissolution of crystals in suspension was assessed using a USP I apparatus with either large (1 L capacity, filled to 500 mL) or small (150 mL) dissolution baths. The stir speed was 50 rpm in the large vessel method and 100 rpm in the small vessel method and temperature was 37° C. The media was PBS with 0.1% SDS. The commercial ropivacaine was dissolved rapidly with greater than 60% of the material dissolved within 30 minutes. A 17 mg sample dissolving in the large vessel reached a plateau within 4 hours, although only approximately 80% of the ropivacaine added to the experiment was accounted for.
Approximately 100-120% of the compound was accounted for in this assay. […] The Y-intercept values of the regression is representative of the magnitude of the “burst”, which was 25× higher for the commercial sample compared to the recrystallized sample. See also FIG. 1A.

[2] = test system: postsurgical pain; settings: in vivo; cited from earlier work
[3] = Franz cell diffusion of ropivacaine through PVA membranes; type: physicochemical; settings: for Fold Decrease in D: relative to buffer with no membrane
Experimental: The diffusion behavior of the encapsulated drug in vivo can be predicted based on diffusion coefficient measured in a Franz cell diffusion system. In particular, diffusion coefficient (D) can be quantified according to Equation 1: [formula] where: • D: Diffusion coefficient (cm^2/s) • L: membrane thickness (cm) • J: flux: (μg×cm^−2×s^−1)=slope (μg/mL/h)×volume (9.8 mL)[…](3600 s/h×A cm^2) • A: surface area of the Franz cell (0.650 cm^2) • ΔC: concentration gradient of ropivacaine (μg/mL or μg/cm^3)=339.98 μg/mL (measured […] fluid concentration)−0 μg/mL (assumed […] concentration) The diffusion of ropivacaine through PVA membranes was measured using a Franz diffusion cell system. The system includes a top donor chamber containing a donor fluid, which is sealed with parafilm during the experiment; and a bottom receptor chamber containing a receptor fluid (9.8 mL of PBS pH 7.3). The donor fluid was prepared in a single batch for use in all diffusion experiments, and consisted of PBS pH 7.3. It was prepared by stirring excess solid ropivacaine in the media for 3 days, and filtering to remove the solids with a 0.22 μm filter. The assayed content was 339.98 μg/m L. The rate of appearance of ropivacaine in the Franz cell receptor fluid (the slope of the concentration versus time plot of the data multiplied by the receptor cell volume, 9.8 mL), and the measured membrane thickness (after hydration), were used to calculate the ropivacaine diffusion coefficient through the membrane, using the formula for Fick's law (Equation 1). The concentration of ropivacaine in the receptor (bottom) chamber was measured at different time points, and the diffusion coefficient was determined from Fick's first law of diffusion. Measured concentrations were converted to total drug transport (μg) by multiplying by the receptor fluid volume (9.8 mL for all experiments). FIGS. 3-5 show the diffusion rate for the first 5 hours for three PVA membranes at various degrees of crosslinking induced by various amounts of citric acid.

[4] = Solubility of ropivacaine in various aqueous media; type: physicochemical
Experimental: As used herein, the aminoamide local anesthetic agents are typically in the free base form, which have lower solubility in an aqueous medium than their salt form (e.g., HCl salt). The low solubility (e.g., less than 1 mg/ml) enables a rapid formation of a saturated solution within the PVA coating or shell.

[5] = Intrinsic dissolution of ropivacaine, uncoated vs coated with PVA membrane (FIG. 2); type: physicochemical; settings: PVA membrane Mn=20-200 kDa, 87% hydrolyzed, 12% citric acid, cured at 125° C. for 6 hours
[6] = USP I, PBS with 0.1% SDS, 37° C.
[7] = PVA membrane 87% hydrolysis, Mn 20-220 kDa, 4% citric acid, 125 °C 6 h
[8] = PVA membrane 87% hydrolysis, Mn 20-220 kDa, 8% citric acid, 125 °C 6 h
[9] = PVA membrane 87% hydrolysis, Mn 20-220 kDa, 12% citric acid, 125 °C 6 h
[10] = PVA membrane 87% hydrolysis, Mn 20-220 kDa, 20% citric acid, 125 °C 6 h
[11] = PVA membrane 87% hydrolysis, Mn 20-220 kDa, 30% citric acid, 125 °C 6 h
[12] = PVA membrane 87% hydrolysis, Mn 146-186 kDa, 4% citric acid, 125 °C 6 h
[13] = PVA membrane 87% hydrolysis, Mn 146-186 kDa, 8% citric acid, 125 °C 6 h
[14] = PVA membrane 87% hydrolysis, Mn 146-186 kDa, 12% citric acid, 125 °C 6 h
[15] = PVA membrane >99% hydrolysis, Mn 90 kDa, 8% citric acid, 125 °C 6 h
[16] = PVA membrane >99% hydrolysis, Mn 90 kDa, 12% citric acid, 125 °C 6 h
[17] = PVA membrane >99% hydrolysis, Mn 90 kDa, 20% citric acid, 125 °C 6 h
[18] = PVA membrane >99% hydrolysis, Mn 146-186 kDa, 0% citric acid, 125 °C 6 h
[19] = PVA membrane >99% hydrolysis, Mn 146-186 kDa, 0% citric acid, 129 °C 3 h
[20] = PVA membrane >99% hydrolysis, Mn 146-186 kDa, 0% citric acid, 140 °C 6 h
[21] = PVA membrane >99% hydrolysis, Mn 146-186 kDa, 4% citric acid, 125 °C 6 h
[22] = PVA membrane >99% hydrolysis, Mn 146-186 kDa, 4% citric acid, 140 °C 6 h
[23] = PVA membrane >99% hydrolysis, Mn 146-186 kDa, 8% citric acid, 125 °C 6 h
[24] = PVA membrane >99% hydrolysis, Mn 146-186 kDa, 12% citric acid, 125 °C 6 h

## CCCN1CCCC[C@H]1C(=O)Nc1c(C)cccc1C [commercial ropivacaine, ropivacaine]
[1]; 17 mg sample, large vessel (500 mL, 50 rpm), PBS with 0.1% SDS, 37° C.
  Time to reach dissolution plateau: ≤ 4 h
[1]; 17 mg sample, large vessel, at plateau
  Ropivacaine added to the experiment accounted for: approximately 80%
[1]; [6]
  Material dissolved within 30 minutes: greater than 60%
[1]; small vessel apparatus, burst phase within first 30 minutes
  Magnitude of the burst (Y-intercept of regression), compared to the recrystallized sample: 25 ×

## CCCCN1CCCCC1C(=O)Nc1c(C)cccc1C (centres unmarked) [conventional bupivacaine, bupivacaine]
[2]
  Duration of action: ≤ 7 h

## CCCN1CCCC[C@H]1C(=O)Nc1c(C)cccc1C [recrystallized ropivacaine, ropivacaine]
[1]; FIG. 1A
  Rate of dissolution slowed as compared to commercial ropivacaine: about 10 times
[1]; [6]
  Compound accounted for in this assay: 100-120%
  Material dissolved over the first 6 hours (gradual dissolution): 60%

## CCCN1CCCC[C@H]1C(=O)Nc1c(C)cccc1C [ropivacaine]
[3]; PBS pH 7.3, excess solid stirred 3 days, filtered 0.22 μm
  Assayed content of saturated ropivacaine donor fluid: 339.98 μg/m L
[3]; PBS, no membrane, D defined in cm^2/s
  Diffusion of ropivacaine in PBS (diffusion coefficient): 4.97×10^−6
[3]; [7]
  D, ropivacaine diffusion coefficient: 1.94E−07 cm^2/s and 2.23E−07 cm^2/s
  Fold Decrease in D: 26 and 22
[3]; [8]
  D, ropivacaine diffusion coefficient: 2.20E−07 cm^2/s and 3.01E−07 cm^2/s
  Fold Decrease in D: 23 and 17
[3]; [9]
  D, ropivacaine diffusion coefficient: 4.30E−07 cm^2/s and 5.43E−07 cm^2/s
  Fold Decrease in D: 12 and 9
[3]; [10]
  D, ropivacaine diffusion coefficient: 6.26E−07 cm^2/s and 3.64E−07 cm^2/s
  Fold Decrease in D: 8 and 14
[3]; [11]
  D, ropivacaine diffusion coefficient: 4.88E−07 cm^2/s and 2.82E−07 cm^2/s
  Fold Decrease in D: 10 and 18
[3]; [12]
  D, ropivacaine diffusion coefficient: 2.32E−07 cm^2/s and 2.64E−07 cm^2/s
  Fold Decrease in D: 21 and 19
[3]; [13]
  D, ropivacaine diffusion coefficient: 2.30E−07 cm^2/s and 2.93E−07 cm^2/s
  Fold Decrease in D: 22 and 17
[3]; [14]
  D, ropivacaine diffusion coefficient: 3.85E−07 cm^2/s and 2.90E−07 cm^2/s
  Fold Decrease in D: 13 and 17
[3]; [15]
  D, ropivacaine diffusion coefficient: 1.68E−07 cm^2/s and 1.99E−07 cm^2/s
  Fold Decrease in D: 30 and 25
[3]; [16]
  D, ropivacaine diffusion coefficient: 3.59E−07 cm^2/s and 3.41E−07 cm^2/s
  Fold Decrease in D: 14 and 15
[3]; [17]
  D, ropivacaine diffusion coefficient: 2.38E−07 cm^2/s and 2.01E−07 cm^2/s
  Fold Decrease in D: 21 and 25
[3]; [18]
  D, ropivacaine diffusion coefficient: 9.09E−08 cm^2/s and 9.21E−08 cm^2/s
  Fold Decrease in D: 55 and 54
[3]; [19]
  D, ropivacaine diffusion coefficient: 1.47E−07 cm^2/s
  Fold Decrease in D: 34
[3]; [20]
  D, ropivacaine diffusion coefficient: 1.33E−07 cm^2/s and 1.19E−07 cm^2/s
  Fold Decrease in D: 37 and 42
[3]; [21]
  D, ropivacaine diffusion coefficient: 2.40E−07 cm^2/s and 2.15E−07 cm^2/s
  Fold Decrease in D: 21 and 23
[3]; [22]
  D, ropivacaine diffusion coefficient: 1.97E−07 cm^2/s and 1.44E−07 cm^2/s
  Fold Decrease in D: 25 and 34
[3]; [23]
  D, ropivacaine diffusion coefficient: 2.02E−07 cm^2/s and 1.91E−07 cm^2/s
  Fold Decrease in D: 25 and 26
[3]; [24]
  D, ropivacaine diffusion coefficient: 2.41E−07 cm^2/s and 2.18E−07 cm^2/s
  Fold Decrease in D: 21 and 23
[3]; PVA membranes 146-186 kDa, >99% hydrolysis, after thermal curing and physical crosslinking
  Decrease in diffusion coefficient compared to diffusion of ropivacaine in PBS: 50 times
[4]; PBS + 0.05% SDS, pH 7.4, aqueous with cosolvent or surfactant or cyclodextrin
  solubility: 254 ± 14 µg/mL
[4]; PBS + 68 mg/mL BSA, pH 7.4, plasma or biological fluid
  solubility: 792 ± 111 µg/mL
[4]; PBS + 0.1% SDS, pH 7.4, aqueous with cosolvent or surfactant or cyclodextrin
  solubility: 306 ± 18 µg/mL
[4]; PBS + 0.2% SDS, pH 7.4, aqueous with cosolvent or surfactant or cyclodextrin
  solubility: 350 ± 12 µg/mL
[4]; aqueous buffer, PBS (pH 7.4)
  solubility: 254 ± 13 µg/mL (≈ 926 µM)
[5]
  Intrinsic dissolution compared with ropivacaine coated with PVA membrane: much more rapid
